Broadly, the Kd is a measure of binding affinity in units of concentration.

Results on 18 compounds are retold here after US6469028B1, “Synthesis and use of retinoid compounds having negative hormone and/or anatgonist activities” (Allergan, Inc., priority 1995, dated 2002).

Holding throughout (assay): Ligand binding assay
One assay has as its target T1, RARβ (Homo sapiens, UniProt P10826).
T1 sequence (P10826 1-455): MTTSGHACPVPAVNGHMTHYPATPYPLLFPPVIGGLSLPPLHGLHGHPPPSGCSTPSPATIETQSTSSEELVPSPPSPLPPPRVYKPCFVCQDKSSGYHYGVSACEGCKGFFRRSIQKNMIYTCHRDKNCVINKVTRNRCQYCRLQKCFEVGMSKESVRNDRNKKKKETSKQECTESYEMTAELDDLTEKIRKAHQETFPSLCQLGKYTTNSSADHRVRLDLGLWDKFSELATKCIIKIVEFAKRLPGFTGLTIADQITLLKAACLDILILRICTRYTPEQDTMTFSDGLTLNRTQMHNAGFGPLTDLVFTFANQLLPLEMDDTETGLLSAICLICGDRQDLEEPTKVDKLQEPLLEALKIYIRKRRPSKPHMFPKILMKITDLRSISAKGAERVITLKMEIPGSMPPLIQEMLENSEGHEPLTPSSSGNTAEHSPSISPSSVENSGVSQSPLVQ
The conditions noted are these: read-out: Kd (nanomolar) RARβ. An excerpt:
(§1) A holoreceptor transactivation assay and a ligand binding assay which measure the antagonist/agonist like activity of the compounds of the invention, or their ability to bind to the several retinoid receptor subtypes, respectively, are described in published PCT Application No. WO93/11755 (particularly on pages 30-33 and 37-41) published on Jun. 24, 1993, the specification of which is also incorporated herein by reference. A description of the holoreceptor transactivation assay is also provided below.
(§2) CV1 cells (5,000 cells/well) were transfected with an RAR reporter plasmid MTV-TREp-LUC (50 ng) along with one of the RAR expression vectors (10 ng) in an automated 96-well format by the calcium phosphate procedure of Heyman et al. Cell 68: 397-406. For RXR-α and RXR-γ transactivation assays, an RXR-responsive reporter plasmid CRBPII-tk-LUC (50 ng) along with the appropriate RXR expression vectors (10 ng) was used substantially as described by Heyman et al. above, and Allegretto et al. J. Biol. Chem. 268: 26625-26633. For RXR-β transactivation assays, an RXR-responsive reporter plasmid CPRE-tk-LUC ([…]) along with RXR-β expression vector ([…]) was used as described in above. These reporters contain DRI elements from human CRBPII and certain DRI elements from promotor, respectively (see Mangelsdorf et al. The Retinoids: Biology Chemistry and Medicine, pp. 319-349, Raven Press Ltd., New York and Heyman et al., cited above). A β-galactosidase (50 ng) expression vector was used as an internal control in the transfections to normalize for variations in transfection efficiency. The cells were transfected in triplicate for 6 hours, followed by incubation with retinoids for 36 hours, and the extracts were assayed for luciferase and […] activities. The detailed experimental procedure for holoreceptor transactivations has been described in Heyman et al. above, and Allegretto et al. cited above. The results obtained in this assay are expressed in EC50 numbers, as they are also in the chimeric receptor transactivation assay. The Heyman et al. Cell 68: 397-406, Allegretto et al. J. Biol. Chem. 268: 26625-26633, and Mangelsdorf et al. The Retinoids: Biology, Chemistry, and Medicine, pp. 319-349, Raven Press Ltd., New York, are expressly incorporated herein by reference. The results of ligand binding assay are expressed in Kd numbers. (See Cheng et al. Biochemical Pharmacology 22: 3099-3108, expressly incorporated herein by reference.) […]

The target of another assay is T2, RARα (Homo sapiens, UniProt P10276).
T2 sequence (P10276 1-462): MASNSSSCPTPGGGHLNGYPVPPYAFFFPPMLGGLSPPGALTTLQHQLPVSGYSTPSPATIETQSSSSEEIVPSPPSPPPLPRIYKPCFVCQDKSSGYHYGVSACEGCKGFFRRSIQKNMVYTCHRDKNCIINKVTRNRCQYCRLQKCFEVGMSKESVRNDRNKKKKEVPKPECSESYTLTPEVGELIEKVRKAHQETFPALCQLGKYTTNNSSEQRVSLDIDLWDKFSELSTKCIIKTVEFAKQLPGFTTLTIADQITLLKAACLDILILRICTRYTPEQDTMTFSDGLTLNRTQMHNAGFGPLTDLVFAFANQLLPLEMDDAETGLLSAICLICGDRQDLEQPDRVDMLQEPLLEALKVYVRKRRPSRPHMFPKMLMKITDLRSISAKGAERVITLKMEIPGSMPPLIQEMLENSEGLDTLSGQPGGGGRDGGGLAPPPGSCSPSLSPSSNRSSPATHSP
Further details: expressed in transfected cells; host or cells: CV1 cells. Conditions: read-out: Kd (nanomolar) RARα.
Text: as §1, §2

In the next assay the target is T3, RARγ (Homo sapiens, UniProt P13631).
T3 sequence (P13631 1-454): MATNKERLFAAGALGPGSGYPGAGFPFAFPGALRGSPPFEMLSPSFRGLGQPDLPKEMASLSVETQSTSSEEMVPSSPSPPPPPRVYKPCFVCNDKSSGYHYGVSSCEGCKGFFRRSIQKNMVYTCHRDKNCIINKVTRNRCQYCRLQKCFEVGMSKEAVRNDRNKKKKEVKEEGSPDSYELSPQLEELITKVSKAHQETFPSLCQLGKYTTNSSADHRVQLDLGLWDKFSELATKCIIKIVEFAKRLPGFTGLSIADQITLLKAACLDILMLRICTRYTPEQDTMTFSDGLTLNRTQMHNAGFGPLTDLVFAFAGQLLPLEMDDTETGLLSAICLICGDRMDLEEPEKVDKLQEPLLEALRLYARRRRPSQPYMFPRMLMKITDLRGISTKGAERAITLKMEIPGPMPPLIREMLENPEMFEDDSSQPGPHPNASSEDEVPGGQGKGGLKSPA
Further details: expressed in transfected cells; host or cells: CV1 cells. Conditions: read-out: Kd (nanomolar) RARγ.
Text: as §1, §2

On to `Cc1ccc(C2=CCC(C)(C)c3ccc(C#Cc4ccc(C(=O)O)cc4)cc32)cn1` [Compound 18, 4-[(5,6-Dihydro-5,5-dimethyl-8-(2-methyl-5-pyridyl)-2-naphthalenyl)ethynyl]benzoic acid], for which the Kd on RARβ stood at 11 nM; at RARα, 24 nM; on RARγ, 24 nM.

On to `CC1(C)CC=C(c2ccccn2)c2cc(C#Cc3ccc(C(=O)O)cc3)ccc21` [Compound 19, 4-[(5,6-Dihydro-5,5-dimethyl-8-(2-pyridyl)-2-naphthalenyl)ethynyl]benzoic acid], for which the results for the Kd on RARβ, on RARα and at RARγ were 210 nM, 565 nM and 659 nM, respectively.

Turning to `Cc1cccc(C2=CCC(C)(C)c3ccc(C#Cc4ccc(C(=O)O)cc4)cc32)c1` [Compound 20, 4-[(5,6-Dihydro-5,5-dimethyl-8-(3-methylphenyl)-2-naphthalenyl)ethynyl]benzoic acid], the Kd worked out at 22 nM on RARβ, 130 nM at RARα and 34 nM on RARγ.

With `CCc1ccc(C2=CCC(C)(C)c3ccc(C#Cc4ccc(C(=O)O)cc4)cc32)cc1` [Compound 21, 4-[(5,6-Dihydro-5,5-dimethyl-8-(4-ethylphenyl)-2-naphthalenyl)ethynyl]benzoic acid], the results for the Kd on RARβ, on RARα and on RARγ were 9 nM, 16 nM and 13 nM, respectively.

For `COc1ccc(C2=CCC(C)(C)c3ccc(C#Cc4ccc(C(=O)O)cc4)cc32)cc1` [Compound 22, 4-[(5,6-Dihydro-5,5-dimethyl-8-(4-methoxyphenyl)-2-naphthalenyl)ethynyl]benzoic acid], the Kd is 17 nM at RARβ, 24 nM at RARα and 27 nM on RARγ.

On to `CC1(C)CC=C(c2ccc(C(F)(F)F)cc2)c2cc(C#Cc3ccc(C(=O)O)cc3)ccc21` [Compound 23, 4-[(5,6-Dihydro-5,5-dimethyl-8-(4-trifluoromethylphenyl)-2-naphthalenyl)ethynyl]benzoic acid], for which the equilibrium dissociation constant (Kd) on RARβ worked out at 25 nM; at RARα, 32 nM; on RARγ, 31 nM.

`Cc1cc(C)cc(C2=CCC(C)(C)c3ccc(C#Cc4ccc(C(=O)O)cc4)cc32)c1` [Compound 24, 4-[(5 6-Dihydro-5,5-dimethyl-8-(3,5-dimethylphenyl)-2-naphthalenyl)ethynyl]benzoic acid]: the Kd on RARβ turned out to be 235 nM; at RARα, 699 nM; on RARγ, 286 nM.

As for `CC1(C)CC=C(c2ccc(Cl)cc2)c2cc(C#Cc3ccc(C(=O)O)cc3)ccc21` [Compound 25, 4-[(5,6-Dihydro-5,5-dimethyl-8-(4-chlorophenyl)-2-naphthalenyl)ethynyl]benzoic acid], the Kd at RARβ is 17 nM; on RARα it was 50 nM; at RARγ, 20 nM.

Take `CC1(C)CC=C(c2cccnc2)c2cc(C#Cc3ccc(C(=O)O)cc3)ccc21` [Compound 26, 4-[(5,6-Dihydro-5,5-dimethyl-8-(3-pyridyl)-2-naphthalenyl)ethynyl]benzoic acid]: the results for the Kd at RARβ, on RARα and at RARγ were 31 nM, 40 nM and 36 nM, respectively.

For `Cc1ccccc1C1=CCC(C)(C)c2ccc(C#Cc3ccc(C(=O)O)cc3)cc21` [Compound 27, 4-[(5,6-Dihydro-5,5-dimethyl-8-(2-methylphenyl)-2-naphthalenyl)ethynyl]benzoic acid], the dissociation constant Kd at RARβ worked out at 14 nM; at RARα it was 69 nM; at RARγ it was 26 nM.

On to `CC1(C)CC=C(c2cccc(O)c2)c2cc(C#Cc3ccc(C(=O)O)cc3)ccc21` [Compound 28, 4-[(5,6-Dihydro5,5-dimethyl-8-(3-hydroxyphenyl)-2-naphthalenyl)ethynyl]benzoic acid], for which the Kd at RARβ is 77 nM; on RARα, 669 nM; at RARγ, 236 nM.

Take `CC1(C)CC=C(c2ccc(O)cc2)c2cc(C#Cc3ccc(C(=O)O)cc3)ccc21` [Compound 29, 4-[(5,6-Dihydro-5,5-dimethyl-8-(4-hydroxyphenyl)-2-naphthalenyl)ethynyl]benzoic acid]: the Kd on RARβ stood at 48 nM; on RARα it was 234 nM; on RARγ it was 80 nM.

Take `Cc1cnc(C2=CCC(C)(C)c3ccc(C#Cc4ccc(C(=O)O)cc4)cc32)s1` [Compound 30, 4-[(5,6-Dihydro-5,5-dimethyl-8-(5-methylthiazol-2-yl)-2-naphthalenyl)ethynyl]benzoic acid]: the Kd on RARβ worked out at 141 nM; on RARα, 683 nM; on RARγ, 219 nM.

For `Cc1csc(C2=CCC(C)(C)c3ccc(C#Cc4ccc(C(=O)O)cc4)cc32)n1` [Compound 31, 4-[(5,6-Dihydro-5,5-dimethyl-8-(4-methylthiazol-2-yl)-2-naphthalenyl)ethynyl]benzoic acid], the Kd worked out at 52 nM on RARβ, 370 nM on RARα and 100 nM on RARγ.

`Cc1nc(C2=CCC(C)(C)c3ccc(C#Cc4ccc(C(=O)O)cc4)cc32)sc1C` [Compound 32]: the values for the equilibrium dissociation constant (Kd) on RARβ and at RARγ were 89 nM and 169 nM, respectively.

Regarding `Cc1ccc(C2=CCC(C)(C)c3ccc(C#Cc4ccc(C(=O)O)cc4)cc32)s1` [Compound 34, 4-[(5,6-Dihydro-5,5-dimethyl-8-(5-methyl-2-thienyl)-2-naphthalenyl)ethynyl]benzoic acid], the Kd was determined as 30 nM on RARβ, 52 nM at RARα and 17 nM on RARγ.

For the compound `Cc1ccc(C2=CCC(C)(C)c3ccc(C(=O)Nc4ccc(C(=O)O)cc4)cc32)cc1` [Compound 36, 4-[[(5,6-Dihydro-5,5-dimethyl-8-(4-methylphenyl)-2-naphthalenyl)carbonyl]amino]-benzoic acid], the Kd worked out at 550 nM at RARβ and 13 nM at RARα.

Take `Cc1ccc(C2=CCC(C)(C)c3ccc(C(=S)Nc4ccc(C(=O)O)c(F)c4)cc32)cc1` [Compound 63, 2-fluoro-4-[[(5,6-dihydro-5,5-dimethyl-8-(4-methylphenyl)-2-naphthalenyl)thiocarbonyl]amino]-benzoic acid]: the Kd on RARβ was determined as 3220 nM; at RARα, 133 nM.
